Reference: patent US20110034472A1, “Novel Compounds for Treatment of Cancer and Disorders Associated With Angiogenesis Function” (UNIVERSITY OF SOUTHERN CALIFORNIA, priority 2004, published 2011)
Where a name gives a salt, the structure may show the parent alone. Read-outs that look alike come from different tables or passages of the source.

How the values were obtained:
CEM or HEY cells = assay: Cytotoxicity of salicylhydrazides (Table 5); assay type: cell-based; conditions: Homo sapiens
Source text: Human prostate cancer cells (PC3, p53 null, AR−; DU145, p53 mutant, AR−; and LNCaP, p53 wild-type, AR+) and breast cancer cells (MCF-7, overexpressed wild-type p53, ER+; MDA-MB-468, p53 mutant, […]; and MDA-MB-435, p53 mutant, ER−) were obtained from American Type Cell Culture (Manassas, Va.). The human ovarian carcinoma cell line (HEY) naturally resistant to cisplatin (CDDP) was kindly provided by Dr. Dubeau (University of Southern California Norris Cancer Center; Buick et al. (1985) Cancer Res. 45:3668-76 and Hamaguchi et al. (1993) Cancer Res. 53:5225-32). The results with CEM cells were previously described (Neamati et al. (1998) J. Med. Chem. 41:3202-9). Cells were maintained as monolayer cultures in RPMI 1640 supplemented with 10% fetal bovine serum (Gemini-Bioproducts, Woodland, Calif.) and 2 mmol/L L-glutamine at 37° C. in a humidified atmosphere of 5% CO2. To remove the adherent cells from the flask for passaging and counting, cells were washed with PBS without calcium or magnesium, incubated with a small volume of 0.25% trypsin-EDTA solution (Sigma-Aldrich, St. Louis, Mo.) for 5 to 10 minutes, and washed with culture medium and centrifuged. All experiments were done using cells in exponential cell growth.
(§1) Cytotoxicity was assessed by a 3-(4,5-dimethylthiazol-2-yl)-2,5-diphenyltetrazolium bromide assay as previously described (Carmichael et al. (1987) Cancer Res. 47:936-42). Briefly, cells were seeded in 96-well microtiter plates (PC3 and DU145 at 5,000 cells/well and LNCaP at 10,000 cells/well; breast and ovarian cells at 4,000 cells/well) and allowed to attach. Cells were subsequently treated with a continuous exposure to the corresponding drug for 72 hours. A 3-(4,5-dimethylthiazol-2-yl)-2,5-diphenyltetrazolium bromide solution (at a final concentration of 0.5 mg/mL) was added to each well and cells were incubated for 4 hours at 37° C. After removal of the medium, DMSO was added and the absorbance was read at 570 nm. All assays were done in triplicate. The IC50 was then determined for each drug from a plot of log(drug concentration) versus percentage of cell kill.

[1] = test system: MDA-MB-435 breast cancer cells; assay: MTT cytotoxicity assay, MDA-MB-435; assay type: cell-based, human; conditions: MTT, 72 h, read-out: IC50
Procedure: The sensitivity of a panel of seven human cancer cell lines to SC144 was assessed by MTT-assay. […] The sensitivity towards SC144 was time- and dose-dependent.
as §1
(§2) Cytotoxicity was assessed by a 3-(4,5-dimethylthiazol-2-yl)-2,5-diphenyltetrazolium bromide (MTT) assay as previously described.^9 Briefly, cells were seeded in 96-well microtiter plates and allowed to attach. Cells were subsequently treated with continuous exposure to the corresponding drug for 72 h. An MTT solution (at a final concentration of 0.5 mg/mL) was added to each well, and cells were incubated for 4 h at 37° C. After removal of the medium, DMSO was added and the absorbance was read at 570 nm. All assays were done in triplicate. The IC50 was then determined for each drug from a plot of log (drug concentration) versus percentage of cells killed.

[2] = test system: HCT 116 p53^+/+ colon cancer cells; assay: MTT cytotoxicity assay, HCT 116 p53+/+; assay type: cell-based, human; conditions: 72 h
Source text: (§3) Human breast cancer cells MDA-MB-435 and colon cancer HT29, p53 mutant were purchased from the American Type Cell Culture (Manassas, Va.). The HCT116 P53^+/+ and HCT116 P53^−/− cells were kindly provided by Dr. Bert Vogelstein (Johns Hopkins Medical Institutions, Baltimore, Md.). Human prostate cancer cells, LNCaP, were kindly provided by Richard Cote (University of Southern California Keck School of Medicine). Cells were maintained as monolayer cultures in RPMI 1640 media supplemented with 10% fetal bovine serum (Gemini-Bioproducts, Woodland, Calif.) and 2 mmol/L L-glutamine at 37° C. in a humidified atmosphere of 5% CO2. To remove the adherent cells from the flask for passaging and counting, cells were washed with PBS without calcium or magnesium, incubated with a small volume of 0.25% trypsin-EDTA solution (Sigma-Aldrich, St. Louis, Mo.) for 5-10 min, and washed with culture medium and centrifuged. All experiments were performed using cells at exponential growth stage. Cells were routinely checked for mycoplasma contamination using a PCR-based assay (Stratagene, Cambridge, UK).
as §2

[3] = test system: HCT 116 p53^−/− colon cancer cells; assay: MTT cytotoxicity assay, HCT 116 p53-/-; assay type: cell-based, human; conditions: 72 h
Source text: as §3, §2

HT29 colon cancer cells = assay: MTT cytotoxicity assay, HT 29; assay type: cell-based, human; conditions: 72 h
Source text: as §3, §2

[4] = test system: human cancer cell lines (MDA-MB-435 and three colon cancer cells); assay: MTT assay, panel of breast, colon and prostate cell lines (Example V); assay type: cell-based
Procedure: All new compounds were tested in four human cancer cell lines, a breast cancer cell, MDA-MB-435, and three colon cancer cells.
as §2

O=C(NNc1nc2cc(F)ccc2n2cccc12)c1ccccn1 (as salt: hydrochloride) [SC160′, N′-(7-Fluoropyrrolo[1,2-a]quinoxalin-4-yl)pyridine-2-carbohydrazide hydrochloride]
melting point: > 280 °C (dec.)

O=C(NNc1nc2cccc(F)c2n2cccc12)c1cnccn1 (as salt: hydrochloride) [SC161′, N′-(9-Fluoropyrrolo[1,2-a]quinoxalin-4-yl)pyrazine-2-carbohydrazide hydrochloride]
melting point: 248 °C (dec.)

O=C(NNc1nc2cc(F)ccc2n2cccc12)c1cnc2ccccc2n1 (as salt: hydrochloride) [SC166′, N′-(7-Fluoropyrrolo[1,2-a]quinoxalin-4-yl)quinoxaline-2-carbohydrazide hydrochloride]
melting point: 280 °C (dec.)

O=C(NNC(=O)c1ccccc1O)c1ccccc1O [SC20]
IC50 (CEM or HEY cells): 0.1 ± 0.01 µM

COc1ccc(/C=C2/C(=O)N(C(=O)c3ccccc3O)N=C2C)cc1OC [SC25]
IC50 (CEM or HEY cells): 0.15 µM

CC1=NN(C(=O)c2ccccc2O)C(=O)/C1=C/c1ccccc1O [SC26]
IC50 (CEM or HEY cells): 0.06 µM

CC1=NN(C(=O)c2ccccc2O)C(=O)/C1=C/c1ccc(O)cc1 [SC27]
IC50 (CEM or HEY cells): 0.06 µM

O=C(CN1C(=O)C/C(=C\c2ccc(Cl)cc2)C1O)NNC(=O)C1=CCCC=C1O (stereo not shown) [SC28]
IC50 (CEM or HEY cells): 10 ± 2 µM

Cc1cccc(C(=O)NNC(O)c2ccc(N3C(=O)c4ccccc4C3=O)cc2)c1 (stereo not shown) [SC29]
IC50 (CEM or HEY cells): 7 ± 2 µM

O=C(CNC(=O)c1ccccc1O)c1ccc(N2C(=O)c3ccccc3C2=O)cc1 [SC30]
IC50 (CEM or HEY cells): 6.5 ± 1 µM

C=C/C=C(\C=C)N1N=C(C)/C(=C(/NNC(=O)c2ccccc2O)c2ccccc2)C1=O [SC31]
IC50 (CEM or HEY cells): 10 ± 2 µM

C=C/C=C(\C=C)N1N=C(C)/C(=C/NNC(=O)c2ccccc2)C1=O [SC32]
IC50 (CEM or HEY cells): 2 ± 1 µM

O=C(/C=C/NNC(=O)c1ccccc1O)c1ccccc1 [SC33]
IC50 (CEM or HEY cells): 20 µM

O=C(COc1ccccc1Cl)NNC(=O)c1cc2ccccc2cc1O [SC34]
IC50 (CEM or HEY cells): 20 µM

COc1ccc2oc(=O)c(C(=O)NNC(=O)c3cccc(C)c3)cc2c1 [SC35]
IC50 (CEM or HEY cells): 12 ± 2 µM

COc1ccc(NC(=O)NNC(=O)c2c(O)ccc3ccccc23)cc1 [SC36]
IC50 (CEM or HEY cells): 20 µM

C=C1C/C(=C\c2ccc(Cl)cc2)C(=O)N1CC(=O)NNC(=O)c1ccccc1O [SC37]
IC50 (CEM or HEY cells): 15 ± 3 µM

O=C(NNc1nc2ccccc2n2cccc12)c1ccc[nH]1 [SC141, 1H-Pyrrole-2-carboxylic acid N′-pyrrolo[1,2-a]quinoxalin-4-yl-hydrazide]
melting point: 210 to 212 °C

Cc1cc2nc(NNC(=O)c3cnccn3)c3cccn3c2cc1C [SC143, Pyrazine-2-carboxylic acid N′-(7,8-dimethyl-pyrrolo[1,2-a]quinoxalin-4-yl)-hydrazide]
melting point: 116 °C

NCCC(=O)NNc1nc2ccccc2n2cccc12 [SC154, 3-Amino-propionic acid N′-pyrrolo[1,2-a]quinoxalin-4-yl-hydrazide]
IC50 ([1]; Homo sapiens): > 20 µM
IC50 ([2]; Homo sapiens): > 20 µM
IC50 ([3]; Homo sapiens): > 20 µM
IC50 (HT29 colon cancer cells; Homo sapiens): > 20 µM
melting point: 164.5 °C

O=C(NNc1nc2ccccc2n2cccc12)c1cc2ccccc2[nH]1 [SC155, 1H-indole-2-carboxylic acid N′-pyrrolo[1,2-a]quinoxalin-4-yl-hydrazide]
IC50 ([1]; Homo sapiens): > 20 µM
IC50 ([2]; Homo sapiens): > 20 µM
IC50 ([3]; Homo sapiens): > 20 µM
IC50 (HT29 colon cancer cells; Homo sapiens): > 20 µM
melting point: 186 °C

O=C(NNc1nc2ccccc2n2cccc12)c1ccc2[nH]ccc2c1 [SC156, 1H-Indole-5-carboxylic acid N′-pyrrolo[1,2-a]quinoxalin-4-yl-hydrazide]
IC50 ([1]; Homo sapiens): > 20 µM
IC50 ([2]; Homo sapiens): > 20 µM
IC50 ([3]; Homo sapiens): > 20 µM
IC50 (HT29 colon cancer cells; Homo sapiens): > 20 µM
melting point: 160 °C

O=C(NNc1nc2ccccc2n2cccc12)c1ccc2cc[nH]c2c1 [SC157, 1H-Indole-6-carboxylic acid N′-pyrrolo[1,2-a]quinoxalin-4-yl-hydrazide]
IC50 ([1]; Homo sapiens): > 20 µM
IC50 ([2]; Homo sapiens): > 20 µM
IC50 ([3]; Homo sapiens): > 20 µM
IC50 (HT29 colon cancer cells; Homo sapiens): > 20 µM
melting point: 198.5 °C

O=C(NNc1nc2ccccc2n2cccc12)c1c[nH]c2ccccc12 [SC158, 1H-Indole-3-carboxylic acid N′-pyrrolo[1,2-a]quinoxalin-4-yl-hydrazide]
IC50 ([1]; Homo sapiens): > 20 µM
IC50 ([2]; Homo sapiens): > 20 µM
IC50 ([3]; Homo sapiens): > 20 µM
IC50 (HT29 colon cancer cells; Homo sapiens): > 20 µM
melting point: 162.5 °C

COc1ccccc1C(=O)NNc1nc2ccccc2n2cccc12 [SC159, 2-Methoxy-N′-(H-pyrrolo[1,2-a]quinoxalin-4-yl)benzohydrazide]
IC50 [1]: > 20 µM
IC50 [2]: > 20 µM
IC50 [3]: > 20 µM
IC50 (HT29 colon cancer cells): > 20 µM

O=C(NNc1nc2cc(F)ccc2n2cccc12)c1ccccn1 [SC160′, N′-(7-Fluoropyrrolo[1,2-a]quinoxalin-4-yl)pyridine-2-carbohydrazide hydrochloride]
activity in all cell lines [4]: inactive

Cl.O=C(NNc1nc2cc(F)ccc2n2cccc12)c1cccnc1 [SC162′, N′-(7-Fluoropyrrolo[1,2-a]quinoxalin-4-yl)nicotinyl hydrazide hydrochloride]
activity in all cell lines [4]: inactive

N#Cc1ccc(C(N)CC(=O)NNc2nc3ccccc3n3cccc23)cc1 (stereo not shown) [SC163, 3-Amino-3-(4-cyano-phenyl)-propionic acid N′-pyrrolo[1,2-a]quinoxalin-4-yl-hydrazide]
IC50 ([1]; Homo sapiens): > 20 µM
IC50 ([2]; Homo sapiens): > 20 µM
IC50 ([3]; Homo sapiens): > 20 µM
IC50 (HT29 colon cancer cells; Homo sapiens): > 20 µM

COc1ccc(C(N)CC(=O)NNc2nc3ccccc3n3cccc23)cc1 (stereo not shown) [SC164, 3-Amino-3-(4-methoxy-phenyl)-propionic acid N′-pyrrolo[1,2-a]quinoxalin-4-yl-hydrazide]
IC50 ([1]; Homo sapiens): > 20 µM
IC50 ([2]; Homo sapiens): > 20 µM
IC50 ([3]; Homo sapiens): > 20 µM
IC50 (HT29 colon cancer cells; Homo sapiens): > 20 µM

NC(CC(=O)NNc1nc2ccccc2n2cccc12)c1ccc(C(F)(F)F)cc1 (stereo not shown) [SC165, 3-Amino-3-(4-trifluoromethyl-phenyl)-propionic acid N′-pyrrolo[1,2-a]quinoxalin-4-yl-hydrazide]
IC50 ([1]; Homo sapiens): > 20 µM
IC50 ([2]; Homo sapiens): > 20 µM
IC50 ([3]; Homo sapiens): > 20 µM
IC50 (HT29 colon cancer cells; Homo sapiens): > 20 µM

O=C(NNc1nc2ccccc2n2cccc12)c1ccccc1F [SC166, 2-Fluoro-benzoic acid N′-pyrrolo[1,2-a]quinoxalin-4-yl-hydrazide]
IC50 ([1]; Homo sapiens): 15 ± 1 µM
IC50 ([2]; Homo sapiens): 8 ± 1 µM
IC50 ([3]; Homo sapiens): 11 ± 1 µM
IC50 (HT29 colon cancer cells; Homo sapiens): 13 ± 2 µM

O=C(NNc1nc2cc(F)ccc2n2cccc12)c1cnc2ccccc2n1 [SC166′, N′-(7-Fluoropyrrolo[1,2-a]quinoxalin-4-yl)quinoxaline-2-carbohydrazide hydrochloride]
IC50 ([4]; Homo sapiens, MDA-MB-435, representative breast, colon, and prostate cell lines, MTT assay, read-out: IC50 values range): 8 to 15 µM
